Experimental findings from ChEMBL document CHEMBL1201862, “PubChem BioAssay data set” (2004) are described below.

Molecules are shown by their SMILES. “And” between values parts separate entries of the source, which are not always exact repeats. Identical values can stand only once. The source made the active and inactive calls. Some results are limits rather than exact numbers.

Assay [1] deals with Vero. Description: mammalian cell viability reduction – secondary assay, cytotoxicity control for West Nile virus antiviral project, dose response (AID 1650). The class given is functional. Particulars: Chlorocebus sabaeus.
Assay [2] relates to Vero. Briefly: inhibition of WNV-induced cytopathic effect – cell-based, CPE readout (AID 1621). Particulars: Chlorocebus sabaeus. The class given is functional.
Assay [3] has as its target Delta-type opioid receptor (Homo sapiens, UniProt P41143). Briefly: Counterscreen for agonists of heterodimerization of the mu 1 (OPRM1) and delta 1 (OPRD1) opioid receptors: Luminescence-based cell-based high throughput dose response assay to identify agonists of OPRD1 homodimerization. [Related pubchem assays (depositor defined):AID504326, AID504355, AID504692, AID504904, AID504905]. The class given is functional.

In assay [4] the target is Mu-type opioid receptor (Homo sapiens, UniProt P35372). Description: Counterscreen for agonists of heterodimerization of the mu 1 (OPRM1) and delta 1 (OPRD1) opioid receptors: Luminescence-based cell-based high throughput dose response assay to identify agonists of OPRM1 homodimerization. The assay is classed as functional.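 Also: U2OS cells expressing OPRM1 and beta-arrestin as split beta-galactosidase partners.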
Assay [5] deals with 5-hydroxytryptamine receptor 5A (Homo sapiens, UniProt P47898). Description: Counterscreen for agonists of OPRM1-OPRD1 heterodimerization: luminescence-based cell-based high throughput dose response assay to identify agonists of 5-hydroxytryptamine (serotonin) 5A receptor (HTR5A). [Related pubchem assays (depositor defined):AID504326, AID504355, AID504692, AID504904, AID504905]. The class given is functional.

Assay [6] in a line: rise of 2N DNA cells, HeLa – IC50, dose response (AID 1117349). The assay is classed as functional, cell-based.
Assay [7] in a line: CellTiter-Glo luminescence survival assay, SW480 colon tumor line, concentration-response curve, half-maximal inhibitory concentration (AID 1117338). The class given is functional.
Assay [8] is described as follows: RKO cell viability reduction, dose response, CellTiter-Glo luminescence (AID 1117322). The assay is classed as functional.
The nature of assay [9]: cytotoxicity toward HCT116 cells – cell-based, CellTiter-Glo luminescence, IC50, dose response (AID 1117332). The assay is classed as functional. The note with it: HCT-116.
Assay [10] can be described thus: SNU-C1 cell viability reduction, dose response, CellTiter-Glo luminescence (AID 1117323). The assay is classed as functional, cell-based.
Assay [11] can be described thus: cytotoxicity toward Colo320 cells – cell-based, CellTiter-Glo luminescence, IC50, dose response (AID 1117334). The class given is functional. Particulars: COLO 320.
Assay [12] can be described thus: rise of 4N DNA cells, HeLa – IC50, dose response (AID 1117351). The class given is functional, cell-based.
Assay [13] can be described thus: cytotoxicity toward HT-29 cells – cell-based, CellTiter-Glo luminescence, IC50, dose response (AID 1117330). The assay is classed as functional.
The nature of assay [14]: Reduced DLD-1 viability, concentration-response, CellTiter-Glo luminescence (AID 1117352). The class given is functional.
The nature of assay [15]: HCT116 cell viability decrease, GSK3B pretreatment – CellTiter-Glo, IC50, dose response (AID 1117339). The assay is classed as functional. The note with it: HCT-116.
The target of assay [16] is 14-3-3 protein gamma (Homo sapiens, UniProt P61981). Description: modulators of 14-3-3 gamma client binding – dose response (AID 711). The assay is classed as functional.
For assay [17], the target named is Paired box protein Pax-8 (Homo sapiens, UniProt Q06710). Briefly: PAX8 transcriptional activity inhibition in RMG-I – RMG-I cells, luciferase, cherry-pick, dose response (AID 687027).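 Also: luciferase reporter driven by Pax8 target thyroperoxidase promoter measured by SteadyGlo luminescence.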 The assay is classed as functional, cell-based.
Assay [18] can be described thus: OVCAR-3 cell viability loss – plate reader, dry powder samples, PAX8 inhibitor project, dose response (AID 743044). The assay is classed as functional, cell-based.
Assay [19] is described as follows: IGROV1 cell killing – plate reader, dry powder samples, PAX8 inhibitor project, dose response (AID 743043). Particulars: IGROV-1. The class given is functional, cell-based.
A short description of assay [20]: OVCAR8 cell viability loss – plate reader, dry powder samples, PAX8 project, dose response (AID 743197). The assay is classed as functional, cell-based. Particulars: OVCAR-8.
Assay [21] in a line: A High Throughput Confirmatory Assay used to Identify Novel Compounds that Inhibit Mycobacterium Tuberculosis in the absence of Glycerol. The class given is functional.
The nature of assay [22]: M. tuberculosis growth inhibition, HTS (AID 449762). The class given is functional.
The nature of assay [23]: glucagon-like peptide-1 release potency in STC-1, concentration-response, half-maximal inhibitory concentration in the STC-1 line (AID 1117345). The assay is classed as functional, cell-based.
Assay [24] can be described thus: Potency on glucagon-like peptide 1 release, dose-response in NCI-H716 cell line, half maximal inhibitory concentration (AID 1117344). The class given is functional, cell-based.
In assay [25] the target is Peroxisome proliferator-activated receptor gamma/Nuclear receptor corepressor 2 (Homo sapiens, UniProt P37231+Q9Y618). Briefly: Counterscreen for NR2E3 inverse agonists: TR-FRET-based biochemical high throughput dose response assay to identify inverse agonists of the interaction between peroxisome proliferator-activated receptor gamma (PPARg) and nuclear receptor co-repressor 2 (NCOR2). The assay is classed as functional.

Assay [26] concerns the target Photoreceptor-specific nuclear receptor (Homo sapiens, UniProt Q9Y5X4). Description: ligands suppressing NR2E3 nuclear receptor activity – biochemical, TR-FRET, dose response (AID 463256). The assay is classed as functional.

Delta-type opioid receptor, sequence (P41143 whole entry): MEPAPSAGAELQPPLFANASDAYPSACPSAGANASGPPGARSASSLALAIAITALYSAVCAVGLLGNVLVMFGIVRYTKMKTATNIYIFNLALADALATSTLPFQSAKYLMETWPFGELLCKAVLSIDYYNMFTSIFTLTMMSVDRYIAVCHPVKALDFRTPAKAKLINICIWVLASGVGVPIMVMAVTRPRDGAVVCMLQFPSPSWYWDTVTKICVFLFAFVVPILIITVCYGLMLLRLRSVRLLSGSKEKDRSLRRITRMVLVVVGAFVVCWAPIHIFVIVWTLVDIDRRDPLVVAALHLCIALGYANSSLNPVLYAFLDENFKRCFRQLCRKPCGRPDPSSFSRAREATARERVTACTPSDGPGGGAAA
Photoreceptor-specific nuclear receptor, sequence (Q9Y5X4 whole entry): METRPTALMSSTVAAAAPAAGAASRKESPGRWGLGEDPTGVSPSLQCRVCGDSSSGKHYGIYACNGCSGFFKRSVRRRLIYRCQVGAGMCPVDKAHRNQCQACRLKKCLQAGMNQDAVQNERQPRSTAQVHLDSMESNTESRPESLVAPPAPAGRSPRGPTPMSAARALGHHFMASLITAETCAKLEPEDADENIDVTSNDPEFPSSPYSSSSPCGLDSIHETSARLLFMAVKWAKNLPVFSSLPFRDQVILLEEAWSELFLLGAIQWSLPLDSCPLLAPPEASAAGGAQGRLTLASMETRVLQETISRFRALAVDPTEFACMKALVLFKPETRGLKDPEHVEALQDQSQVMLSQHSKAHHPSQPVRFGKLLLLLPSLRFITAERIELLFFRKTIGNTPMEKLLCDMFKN
Mu-type opioid receptor, sequence (P35372 whole entry): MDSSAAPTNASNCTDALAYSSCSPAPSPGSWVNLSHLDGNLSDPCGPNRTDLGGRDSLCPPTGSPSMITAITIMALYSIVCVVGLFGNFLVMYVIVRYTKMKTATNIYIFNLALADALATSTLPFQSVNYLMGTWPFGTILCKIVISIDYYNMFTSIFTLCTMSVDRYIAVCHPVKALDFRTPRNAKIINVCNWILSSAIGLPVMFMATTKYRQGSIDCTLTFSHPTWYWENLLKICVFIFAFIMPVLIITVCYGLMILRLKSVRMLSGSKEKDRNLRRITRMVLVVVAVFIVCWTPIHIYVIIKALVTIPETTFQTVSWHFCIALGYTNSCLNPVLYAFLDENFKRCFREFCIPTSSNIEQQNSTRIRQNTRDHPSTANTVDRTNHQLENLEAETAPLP
Paired box protein Pax-8, sequence (Q06710 whole entry): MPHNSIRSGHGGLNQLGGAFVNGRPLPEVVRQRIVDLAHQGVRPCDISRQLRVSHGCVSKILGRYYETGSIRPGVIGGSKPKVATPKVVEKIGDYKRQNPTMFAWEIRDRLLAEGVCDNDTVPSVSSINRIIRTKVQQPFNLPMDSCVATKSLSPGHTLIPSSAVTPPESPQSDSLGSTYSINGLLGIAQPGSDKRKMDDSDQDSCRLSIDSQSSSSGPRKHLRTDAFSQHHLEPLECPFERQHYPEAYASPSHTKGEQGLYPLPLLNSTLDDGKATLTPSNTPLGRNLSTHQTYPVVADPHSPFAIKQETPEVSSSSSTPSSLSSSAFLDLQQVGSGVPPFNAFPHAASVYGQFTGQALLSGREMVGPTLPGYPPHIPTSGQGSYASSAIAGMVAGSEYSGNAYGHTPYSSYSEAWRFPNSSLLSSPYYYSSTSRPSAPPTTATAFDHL
5-hydroxytryptamine receptor 5A, sequence (P47898 whole entry): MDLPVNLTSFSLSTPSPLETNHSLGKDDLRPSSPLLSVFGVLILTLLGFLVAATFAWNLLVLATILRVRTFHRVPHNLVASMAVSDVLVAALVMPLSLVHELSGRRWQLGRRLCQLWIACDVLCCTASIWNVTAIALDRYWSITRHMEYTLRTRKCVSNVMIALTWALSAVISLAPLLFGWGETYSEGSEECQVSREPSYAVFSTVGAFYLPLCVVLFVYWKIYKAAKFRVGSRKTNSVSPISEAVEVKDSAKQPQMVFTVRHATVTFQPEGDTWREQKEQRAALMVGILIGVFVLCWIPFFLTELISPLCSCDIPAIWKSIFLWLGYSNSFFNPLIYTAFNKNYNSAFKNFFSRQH
14-3-3 protein gamma, sequence (P61981 whole entry): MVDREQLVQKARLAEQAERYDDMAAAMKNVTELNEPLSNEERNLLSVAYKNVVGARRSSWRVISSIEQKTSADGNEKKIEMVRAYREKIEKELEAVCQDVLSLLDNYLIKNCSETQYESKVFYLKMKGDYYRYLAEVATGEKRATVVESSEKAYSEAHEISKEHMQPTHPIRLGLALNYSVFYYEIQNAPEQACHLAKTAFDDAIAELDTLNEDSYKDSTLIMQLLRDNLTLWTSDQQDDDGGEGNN

Take `CC(C)c1cc(C(C)C)c(S(=O)(=O)N2c3ccccc3[C@]3(Br)C[C@H]4C(=O)N[C@@H](Cc5ccccc5)C(=O)N4[C@H]23)c(C(C)C)c1`: the CC50 in assay [1] is 13.7 µM (active). Moreover, the IC50 in assay [2] is 39.9 µM (active).
Turning to `CCC(COC(=O)c1cc(OC)c(OC)c(OC)c1)(c1ccccc1)N(C)C` (stereo unspecified), the EC50 is > 92.5 µM (inactive) and 65.1 µM (inactive) in assay [3]; > 92.5 µM (inactive) in assay [4]; > 92.5 µM (inactive) in assay [5]. Also, the IC50 in assay [6] was > 10 µM (inactive); in assay [7], > 20 µM (inactive); in assay [8], 0.142 µM (active); in assay [9] it was > 20 µM (inactive); in assay [10], 2.45 µM (active); in [11], > 20 µM (inactive). The IC50 is > 10 µM (inactive) in assay [12], > 20 µM (inactive) in assay [13], > 20 µM (inactive) in [14] and 1.61 µM (active) in [15].
`COCCNC(=O)C(c1ccncc1)N(C(=O)Cn1nnc2ccccc21)c1ccc(OC)cc1` (stereo unspecified): the IC50 in assay [16] was 24.6 µM (active).
Turning to `COc1ccc(CN(C)C[C@H]2OCCCC[C@H](C)Oc3ccc(NC(=O)Nc4ccc(C(F)(F)F)cc4)cc3C(=O)N([C@H](C)CO)C[C@H]2C)cc1`, the concentration at half-maximal activity (AC50) in assay [17] is 9.16 µM (active); in [18] it was 26.4 µM (active); in assay [19] it was 54.7 µM (active); in [20], 59 µM (active).
With `CCCOc1cccc(C(=O)NC(=S)Nc2ccc(N3CCN(C)CC3)cc2)c1`, the IC50 in [21] and in [22] was > 100 µM (active) in each case.
As for `NC[C@@H]1O[C@H](O[C@H]2[C@H](O)[C@H](O[C@H]3[C@@H](O)[C@H](N)C[C@H](N)[C@H]3O[C@H]3O[C@H](CN)[C@H](O)[C@H](O)[C@H]3N)O[C@@H]2CO)[C@@H](N)[C@@H](O)[C@@H]1O`, the IC50 in assay [23] and in [24] was > 40 µM (inactive) throughout.
Consider `COc1ccc(-c2oc3ncn4nc(Cc5ccccc5)nc4c3c2-c2ccc(OC)cc2)cc1`, for which the IC50 in assay [25] was 6.02 µM (active); in assay [26], 7.69 µM (active).
